{"source": "patent US20090155218A1", "about": "“COMPOSITIONS AND METHODS FOR GROWTH OF EMBRYONIC STEM CELLS” (priority 2004, published 2009)", "key": {"[1]": {"tested_on": "HSF6 cells", "experiment": "Follistatin added to HSF6 cells on mEFs (immunohistochemistry, RT-PCR)", "assay_type": "cell-based, human", "conditions": "on mEFs with follistatin", "description": "(§1) Stem cell culture: hES cell line HSF6 was maintained on mitomycin C treated CF1 mouse feeder layers (mEF) at 37° C., 5% CO2 in DSR medium, which consisted of high glucose DMEM containing knockout serum replacer, glutamine, non-essential amino acids, 0.1 mM β-mercaptoethanol (all from Gibco, Carlsbad, Calif.; www.invitrogen.com) as previously described,^19 or on laminin (20 μg/ml, Chemicon, www.chemicon.com) coated dishes or in DSR containing 50 ng/ml human recombinant Activin A (ACT A), 50 ng/ml human recombinant Keratinocyte Growth Factor (KGF), both from Preprotech Inc. (Rocky Hill N.J.; www.preprotech.com). These concentrations were determined from previous experiments with human fetal pancreatic cell culture.^14, 20 In some experiments, 10 ng/ml human recombinant Bone Morphogenetic Protein 4 (BMP-4; R&D Systems Minneapolis, Minn. www.RnDSystems.com) was used to replace ACT A, and 0.4 μg/ml follistatin (R&D Systems) was added to ES cells grown on mEFs, sufficient to neutralize 50 ng/ml Act A according to the manufacturer's directions. Medium was changed every day on cells grown on mEFs and every other day, on cells grown on laminin with the growth factors. Cells were passaged weekly at 1:3 or 1:4 dilution.\nIn some experiments, 10 ng/ml human recombinant Bone Morphogenetic Protein 4 (BMP-4; R&D Systems Minneapolis, Minn. www.RnDSystems.com) was used to replace activin A, and 2 μg/ml recombinant mouse FS-288 follistatin (R&D Systems) was added to ES cells grown on mEFs, sufficient to neutralize 50 ng/ml activin A according to manufacturer's directions. Medium was changed every day on cells grown on mEFs or in CM and every other day, on cells grown on laminin with the growth factors. Cells were passaged weekly at 1:3 or 1:4 dilution by gentle treatment with 1 mg/ml Collagenase IV (Gibco BRL) for 5 minutes, followed by scraping.\nImmunohistochemistry: Stem cell cultures were grown on coverslips coated with mEFs or laminin fixed with 4% paraformaldehyde and stained. Protein expression of the stem cell markers TRA-1-60 and Oct-4 was analyzed by immunohistochemistry using primary mouse anti-TRA-1-60 (Chemicon) and rabbit anti-OCT-4 antiserum (a generous gift from Dr Hans Scholer, U Penn). Control slides were incubated with mouse IgM and rabbit IgG. […]\nAlternatively, hES cell cultures were grown on coverslips coated with mEFs or laminin, fixed with 4% paraformaldehyde and immunostained as previously described.^4 Protein expression of the stem cell markers TRA-1-60, SSEA-4 and Oct-4 was analyzed using primary mouse anti-TRA-1-60 IgM (Chemicon) mouse anti-SSEA-4 IgG3 (DSHB, U of Iowa, Iowa City, Iowa), and rabbit anti-Oct-4 antiserum (a generous gift from Dr Hans Scholer, U Penn). […]"}, "[2]": {"biological_target": "T1, activin A (Homo sapiens, UniProt P08476)", "T1 sequence (P08476 311-426)": "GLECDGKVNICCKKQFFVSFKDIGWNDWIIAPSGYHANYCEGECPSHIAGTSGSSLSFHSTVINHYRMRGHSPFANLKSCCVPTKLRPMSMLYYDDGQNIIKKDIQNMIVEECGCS", "conditions": "cited from earlier work"}, "[3]": {"tested_on": "members of the BMP family", "conditions": "cited from earlier work"}, "[4]": {"tested_on": "TGFβ", "conditions": "cited from earlier work"}, "[5]": {"tested_on": "hES cells", "experiment": "Proliferation assay, 3H thymidine incorporation", "assay_type": "cell-based, human", "conditions": "on laminin, 16 hours pulse, n=4", "description": "Proliferation assay to quantify rates of proliferation under different culture conditions: Cells were cultured in 6 well plates on laminin in the presence of either FGF2-supplemented CM from feeder layers or activin A, KGF, NIC, or a combination of these 3 factors. Cultures were pulsed with 1 μCi/ml [methyl ^3H] thymidine (specific activity 6.7 Ci/mmol; MP Biomedicals, Irvine Calif.; www.mpbio.com) in newly replenished medium. After 16 hours, cells were harvested and thymidine incorporation into cells was quantified as previously described.^23 Briefly, DNA content was measured fluoremetrically, and incorporation of ^3H thymidine was determined by liquid scintillation counting of trichloracetic acid precipitates of the sonicated cells. Statistical significance of observed differences was determined by analysis of variance and Fischer's protected least significance difference test with a 95% level as the limit of significance using Statview IV (Abacus Concepts, Berkeley Calif.)."}, "[6]": {"tested_on": "HSF6 cells", "experiment": "Flow cytometric analysis of TRA-1-60 cell-surface antigen expression", "assay_type": "cell-based, human", "conditions": "activin removed from the culture for 1 week (NIC+KGF remain)", "description": "(§2) Alternatively, hES cell line HSF6 was maintained on mitomycin C treated CF1 mouse feeder layers (mEF) at 37° C., 5% CO2 in DSR medium as previously described^4. For the experiments described here, passage 43 hES cells were cultured on laminin (20 μg/ml, Chemicon, www.chemicon.com) coated dishes in the presence of conditioned medium from mEFs (CM) supplemented with 10 ng/ml basic fibroblast growth factor (FGF2; Preprotech Inc. Rocky Hill N.J.; www.preprotech.com), or on laminin in DSR medium containing 50 ng/ml human recombinant activin A, 50 ng/ml human recombinant KGF, both from Preprotech, and 10 mM Nicotinamide (NIC; Sigma Corp, St Louis Mo.).\nFlow cytometric analysis: Flow cytometry was used to quantify undifferentiated cells under different culture conditions. Cells were harvested using a 60 minute collagenase treatment followed by shearing into a single cell suspensions and filtering using a 70 micron cell filter. Single cells from each condition were labeled with mouse anti TRA-1-60 or mouse IgM (for controls) and FITC-conjugated donkey anti-mouse IgM (Jackson Immunoresearch). Cells were analyzed using a Becton Dickinson FACScan, and cell-surface antigen expression quantitated using CellQuest software."}, "[7]": {"tested_on": "HSF6 cells", "experiment": "Immunohistochemistry of stem cell markers in hES cells grown on laminin", "assay_type": "cell-based, human", "conditions": "NK and A for 1 week", "description": "as §1\n(§3) Alternatively, hES cell line HSF6 was maintained on mitomycin C treated CF1 mouse feeder layers (mEF) at 37° C., 5% CO2 in DSR medium as previously described^4. […]"}, "[8]": {"tested_on": "hES cell line HSF6", "experiment": "Long-term feeder-free culture and passaging in the undifferentiated state", "assay_type": "cell-based, human", "description": "as §1\nas §2, with “Mo.). […]” for “Mo.).”"}, "[9]": {"tested_on": "Smad2", "experiment": "Western blotting for phosphorylated Smad2", "assay_type": "cell-based, human", "conditions": "HSF6 cells grown in the presence of Activin A", "description": "Western blotting: Western blotting was used for phosphorylated Smad2, and was performed on lysates of HSF6 cells as previously described.^4 Cells cultured in the presence of activin A were lysed in detergent containing buffer supplemented with vanadate (10 μM) and microcystin (1 μM) and first blotted with phospho-Smad2 (ser465/467) antibody (Cell Signaling, cellsignal.com). Blots were then stripped and reprobed with Smad2 antibody (Cell Signaling)."}, "[10]": {"tested_on": "hES cells", "experiment": "Semi-quantitative RT-PCR of stem cell markers in hES cells grown on laminin", "assay_type": "cell-based, human", "conditions": "1 week for NK and BMP-4 (10 ng/ml, replacing activin A)", "description": "as §1, §3"}}, "note": "“Also recorded” adds a separate entry of the source."}
{"molecule": "follistatin", "values": [{"measurement": "expression of oct-4 and nanog, RT-PCR", "setting": "[1]; 1 week", "value": "absent (nanog) or markedly diminished (oct-4)"}, {"measurement": "staining for TRA-1-60 and Oct-4 (immunohistochemistry)", "setting": "[1]; 1 week", "value": "lost staining for TRA-1-60 (cytoplasmic), with reduced staining for Oct-4"}, {"measurement": "expression of oct-4 and nanog, RT-PCR", "setting": "[1]; 2 weeks", "value": "completely lost"}, {"measurement": "staining for Oct-4 (immunohistochemistry)", "setting": "[1]; 2 weeks", "value": "Oct-4 immunoreactivity had completely disappeared"}, {"measurement": "affinity for activin A", "setting": "[2]", "value": "extremely high affinity"}, {"measurement": "affinity for members of the BMP family", "setting": "[3]", "value": "lower affinity"}, {"measurement": "binding to TGFβ", "setting": "[4]", "value": "does not bind"}]}
{"molecule": "NC(=O)c1cccnc1", "note": "[NIC, nicotinamide, reference compound]", "values": [{"measurement": "proliferation rate (3H thymidine incorporation)", "setting": "[5]", "value": "intermediate"}]}
{"molecule": "Activin A: human recombinant Activin A, TGFβ family member; homodimer of inhibin beta-A chain (protein) GLECDGKVNICCKKQFFVSFKDIGWNDWIIAPSGYHANYCEGECPSHIAGTSGSSLSFHSTVINHYRMRGHSPFANLKSCCVPTKLRPMSMLYYDDGQNIIKKDIQNMIVEECGCS", "values": [{"measurement": "percentage of cells expressing TRA-1-60 after removal of activin", "setting": "[6]", "value": 3.9, "unit": "%"}, {"measurement": "proliferation rate (3H thymidine incorporation)", "setting": "[5]", "value": "significantly reduced"}, {"measurement": "staining for TRA-1-60 and Oct-4 / phenotype (immunohistochemistry)", "setting": "[7]", "value": "no change in phenotype"}, {"measurement": "concentration optimal to maintain the cells in an undifferentiated state", "setting": "[8]; dose response at 5, 50 and 100 ng/ml", "value": 50, "unit": "ng/mL"}, {"measurement": "continued growth and passaging", "setting": "[8]; on laminin", "value": "could not be passaged further"}, {"measurement": "passages of continuous growth in the undifferentiated state", "setting": "[8]; on laminin, without feeder layers, conditioned medium or STAT3 activation", "value": "at least 10 passages"}, {"measurement": "Smad2 phosphorylation", "setting": "[9]", "value": "showing phospho-Smad 2"}]}
{"molecule": "BMP-4: human recombinant Bone Morphogenetic Protein 4, another TGFβ family member, used to replace activin A (protein, UniProt P12644 293-408, looked up) Bone morphogenetic protein 4: SPKHHSQRARKKNKNCRRHSLYVDFSDVGWNDWIVAPPGYQAFYCHGDCPFPLADHLNSTNHAIVQTLVNSVNSSIPKACCVPTELSAISMLYLDEYDKVVLKNYQEMVVEGCGCR", "values": [{"measurement": "expression of stem cell markers oct-4, nanog (telomerase), RT-PCR", "setting": "[10]", "value": "loss of expression for nanog, oct-4, and telomerase; also recorded: complete loss of expression for nanog and oct-4"}]}
